{"source": "patent US12076328B2", "about": "(priority 2020, dated 2024)", "key": {"[1]": {"experiment": "Pharmacokinetic evaluation of milled niclosamide extrudate in CD-1 mice", "assay_type": "in vivo", "details": "500 mg/kg suspended in 0.5% Methocel A4M"}, "[2]": {"experiment": "Oral pharmacokinetic analysis in rats", "assay_type": "in vivo", "details": "niclosamide dose 10 mg/kg by oral gavage, n = 5", "protocol": "The oral pharmacokinetic analysis was conducted at Pharmaron (Ningbo, China). The study protocol was approved and conducted in accordance with the Institutional Animal Care and Use Committee (IACUC) guidelines at Pharmaron. (IACUC; Protocol Number AUP-PK-R-06012019). […] The powders were blended by mortar and pestle and loaded into the capsules using the capsule filling funnel for size 9 (Torpac, Fairfield, NJ, USA). […] Two mobile phases were used. The mobile phase A was a 0.1% formic acid aqueous solution, and the mobile phase B was a mixture of 5% water and 95% acetonitrile (0.1% formic acid). Then, 50 μL of plasma with 5 μL of methanol were added to 200 μL of methanol containing an internal standard mixture for protein precipitation. The samples were vortexed for 30 s and underwent centrifugation for 15 min at 4000 rpm and […]. Thereafter, the supernatant was diluted three times with water, and 2 μL were injected into the HPLC. Furthermore, the resultant particles were subjected to dissolution and the resultant supernatants after centrifugation were analyzed."}, "[3]": {"system": "COVID-19", "details": "Vero E6 cells; cited from earlier work"}, "[4]": {"system": "SARS-CoV", "details": "Vero cells infected by SARS-CoV (2002 pandemic); cited from earlier work"}, "[5]": {"system": "SARS-CoV-2", "assay_type": "cell-based", "details": "assumed that the wet tissue has a density"}}, "data": [{"smiles": "O=C(Nc1ccc([N+](=O)[O-])cc1Cl)c1cc(Cl)ccc1O", "note": "[Crystalline Nic]", "values": [{"measurement": "AUC0-last", "setting": "[1]", "value": 1454.6, "unit": "ng·h/mL"}, {"measurement": "Cmax", "setting": "[1]", "value": 661.7, "unit": "ng/mL"}, {"measurement": "Tmax", "setting": "[1]", "value": 0.5, "unit": "h"}]}, {"smiles": "O=C(Nc1ccc([N+](=O)[O-])cc1Cl)c1cc(Cl)ccc1O", "values": [{"measurement": "AUCInf", "setting": "[2]", "value": 188, "unit": "ng·h/mL"}, {"measurement": "AUClast", "setting": "[2]", "value": 168, "unit": "ng·h/mL"}, {"measurement": "AUC—% Extrap_obs", "setting": "[2]", "value": 8.4, "unit": "%"}, {"measurement": "Cmax", "setting": "[2]", "value": 48.3, "unit": "ng/mL"}, {"measurement": "MRTInf_obs", "setting": "[2]", "value": 3.56, "unit": "h"}, {"measurement": "T1/2", "setting": "[2]", "value": 1.00, "unit": "h"}, {"measurement": "Tmax", "setting": "[2]", "value": 3.60, "unit": "h"}]}, {"smiles": "CCN(CC)CCCC(C)Nc1ccnc2cc(Cl)ccc12", "note": "(stereo not shown) [chloroquine]", "values": [{"measurement": "IC50", "setting": "[3]", "value": 1130, "unit": "nM"}, {"measurement": "IC50", "setting": "[4]", "value": 4400, "unit": "nM"}]}, {"smiles": "O=C(Nc1ccc([N+](=O)[O-])cc1Cl)c1cc(Cl)ccc1O", "note": "[niclosamide, 5-Chloro-N-(2-chloro-4-nitrophenyl)salicylamide]", "values": [{"measurement": "Estimated niclosamide IC50 for SARS-CoV-2", "setting": "[5]", "value": "0.09156 μg/g of wet tissue"}]}]}
